Read-outs that look alike come from different tables or passages of the source. *1 amine or outer side, *2 acyl side, *3 side chain or, on linkers, in order; H or OH if unused. Where a SMILES comes first, the peptide text is derived from it. Bridges are numbered along the chain shown (N, C = ends). Where no end group is shown, it is not given here. [ ]: non-standard residue; d: D form. X1 = O=C([C@@H]1CCN=C2C(N[*:1])=Cc3cc(O)c(O)cc3N21)[*:2]; X2 = O=CN(O)CCC[C@H](N[*:1])C(=O)[*:2]; Suc = O=C(CCC(=O)[*:2])[*:1]
Key:
COX-1 = settings: cited from earlier work
Description: (§1) Aim: Neolignan 4’-O-methylhonokiol (MH) isolated from Magnolia grandiflora is known to have several biological activities, including anti-cancer, anti-inflammatory and anti-neurodegenerative effects. […] The development of COX-2 inhibitor radiolabeled analogs is of special interest for PET visualization of inflammation and tumors.

COX-2 = settings: cited from earlier work
Description: as §1

[1] = carrageenan-induced inflammation in mice; assay type: in vivo; settings: preliminary tests on mice with a carrageenan-induced inflammation
Description: as §1, with “tumors. […] The present study describes the radiolabeling procedure of [^11C]MPbP.” for “tumors.”

GABAB receptors = molecular target: T1, GABAB receptors (Mus musculus, UniProt Q9WV18); assay type: in vivo, mice
T1 construct: from tissue; host or cells: brain of CD-1 male mice (in vivo / ex vivo)
T1 sequence (Q9WV18 20-960): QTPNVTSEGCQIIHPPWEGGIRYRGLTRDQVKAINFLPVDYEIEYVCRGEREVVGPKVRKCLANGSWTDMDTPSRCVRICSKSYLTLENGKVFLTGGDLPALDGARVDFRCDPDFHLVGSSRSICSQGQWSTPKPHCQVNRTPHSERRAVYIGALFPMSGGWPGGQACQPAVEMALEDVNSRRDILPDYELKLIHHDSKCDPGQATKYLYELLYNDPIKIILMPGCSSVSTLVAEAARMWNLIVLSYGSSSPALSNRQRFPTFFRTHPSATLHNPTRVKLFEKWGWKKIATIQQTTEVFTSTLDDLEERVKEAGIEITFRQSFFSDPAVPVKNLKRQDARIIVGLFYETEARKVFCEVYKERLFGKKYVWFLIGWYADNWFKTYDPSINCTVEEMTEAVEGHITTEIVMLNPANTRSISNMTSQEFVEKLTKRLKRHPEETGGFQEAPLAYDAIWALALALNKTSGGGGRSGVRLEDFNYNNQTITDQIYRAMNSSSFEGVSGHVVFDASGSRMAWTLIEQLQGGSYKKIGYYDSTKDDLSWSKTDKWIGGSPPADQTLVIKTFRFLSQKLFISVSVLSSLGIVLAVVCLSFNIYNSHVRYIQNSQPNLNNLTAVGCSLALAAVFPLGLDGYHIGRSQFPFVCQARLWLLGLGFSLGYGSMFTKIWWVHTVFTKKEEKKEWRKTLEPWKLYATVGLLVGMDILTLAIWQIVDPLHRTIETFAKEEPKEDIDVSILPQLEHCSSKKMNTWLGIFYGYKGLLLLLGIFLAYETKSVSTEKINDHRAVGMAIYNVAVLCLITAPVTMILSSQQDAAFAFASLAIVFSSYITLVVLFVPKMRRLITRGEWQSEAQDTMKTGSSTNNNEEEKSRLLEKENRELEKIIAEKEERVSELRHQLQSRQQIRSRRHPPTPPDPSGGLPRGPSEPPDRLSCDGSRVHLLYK
T1 sequence (Q80T41 41-940 partner): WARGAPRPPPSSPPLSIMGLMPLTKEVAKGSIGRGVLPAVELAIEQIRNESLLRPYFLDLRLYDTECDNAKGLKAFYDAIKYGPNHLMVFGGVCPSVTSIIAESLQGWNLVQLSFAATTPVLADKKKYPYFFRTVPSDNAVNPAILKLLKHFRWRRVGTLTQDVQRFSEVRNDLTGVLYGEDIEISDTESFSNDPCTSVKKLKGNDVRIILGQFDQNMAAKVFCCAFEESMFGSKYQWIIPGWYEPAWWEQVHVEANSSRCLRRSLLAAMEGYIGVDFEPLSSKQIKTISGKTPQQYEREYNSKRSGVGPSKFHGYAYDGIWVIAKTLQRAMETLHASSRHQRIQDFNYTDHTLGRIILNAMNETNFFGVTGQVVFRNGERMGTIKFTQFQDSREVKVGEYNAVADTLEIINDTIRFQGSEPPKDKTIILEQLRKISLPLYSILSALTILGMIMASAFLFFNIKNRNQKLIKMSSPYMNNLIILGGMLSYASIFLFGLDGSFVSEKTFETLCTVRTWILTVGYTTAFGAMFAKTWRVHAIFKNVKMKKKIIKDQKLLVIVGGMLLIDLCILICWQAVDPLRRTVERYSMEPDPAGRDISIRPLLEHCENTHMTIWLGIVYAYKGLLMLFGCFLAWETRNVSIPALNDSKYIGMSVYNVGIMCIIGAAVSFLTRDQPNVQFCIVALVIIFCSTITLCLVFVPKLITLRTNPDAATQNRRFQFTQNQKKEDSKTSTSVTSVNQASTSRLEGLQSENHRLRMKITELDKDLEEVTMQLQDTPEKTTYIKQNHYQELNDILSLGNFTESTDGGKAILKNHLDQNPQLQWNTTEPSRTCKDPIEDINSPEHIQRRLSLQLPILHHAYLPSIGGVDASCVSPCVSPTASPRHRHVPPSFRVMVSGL
Protocol: Methods: New GABAB agonists, fluoropyridylmethoxy analogues of baclofen, were synthesized. The in vitro potency of these new compounds was determined commercially. […] The regional brain distribution of the radiolabeled [^18F]1 was studied in CD-1 male mice.

[2] = human, serum
Protocol: Protein binding, partition coefficient and stability values of ^68Ga-pyoverdine in human serum and in the excess of competing chelator and metal were determined.

RBCs = assay: RBC radiolabelling; assay type: cell-based
in vivo = settings: BALB/c nude, mouse, total radioactivity
Protocol: (§2) Methods: The new MG analogue DOTA-MGS5 was designed based on a combination of the substitutions applied in peptide derivatives previously developed by our group (1). The in vitro and in vivo characterisation after radiolabelling with In-111 and Lu-177 included stability analyses of the radioligands incubated in rat tissue homogenates and after injection into BALB/c mice. Receptor interaction in terms of receptor affinity and cell uptake was analysed using A431 human epidermoid carcinoma cells transfected with human CCK2R (A431-CCK2R) and mock-transfected cells (A431-mock). The targeting potential was evaluated by small animal dual modality single photon emission computed tomography (NanoSPECT/CT) as well as ex vivo biodistribution studies in tumour bearing BALB/c nude mice up to 4 h after injection.

[3] = after 10 min, BALB/c mice in vivo
Protocol: as §2

A431-CCK2R cells = assay: internalisation into A431-CCK2R cells; assay type: cell-based, human
[4] = test system: Her-2-positive (HCC1954) cell line; assay: cell binding and internalisation, HCC1954; assay type: cell-based; settings: controls
Protocol: Radiopharmaceuticals (0.19 MBq/μg) were tested for their internalisation and effects on viability (dye exclusion) and clonogenicity of Her-2-positive (HCC1954) and –negative (MDA-MB-231) cell lines.

T47D^+ = assay: total cell bound tracer, T47D+; settings: 1h incubation
Protocol: (§3) Total cell bound [^68Ga]1 and [^68Ga]2 over time (0-90 min) was determined according to previously published methods^1,2. FACS analysis with 3 was also performed on the following cell lines T47D^+ (PSMA^+), T47D^Mock (vector only), T47D (wild type).

PC-3^+ = assay: total cell bound tracer, PC-3+; settings: 1h incubation
Protocol: as §3

LNCaP = assay: total cell bound tracer, LNCaP; settings: 1h incubation
Protocol: as §3

MDA-MB-231^+ = assay: total cell bound tracer, MDA-MB-231+; settings: 1h incubation
Protocol: as §3

cysteine challenge = assay type: physicochemical; settings: 100 fold molar excess, up to 2 hours
Protocol: Cysteine challenge (100 fold molar excess) was also performed.

MCF-7 cells = assay: cellular uptake, internalization and membrane binding; assay type: cell-based
[5] = adult, 740 MBq; ref summary of products characteristics; cited from earlier work
AT1R = molecular target: T2, AT1R (Homo sapiens, UniProt P30556); assay: in vitro AT1R binding studies; assay type: cell-based; settings: MDA-MB-231 and CHO AT1R cells vs AT1R-negative CHO cells, 4 °C, one hour, with or without losartan potassium 100 μM
T2 construct: using AT1R-positive MDA-MB-231 breast cancer cells; endogenous in cells
T2 sequence (P30556 whole entry): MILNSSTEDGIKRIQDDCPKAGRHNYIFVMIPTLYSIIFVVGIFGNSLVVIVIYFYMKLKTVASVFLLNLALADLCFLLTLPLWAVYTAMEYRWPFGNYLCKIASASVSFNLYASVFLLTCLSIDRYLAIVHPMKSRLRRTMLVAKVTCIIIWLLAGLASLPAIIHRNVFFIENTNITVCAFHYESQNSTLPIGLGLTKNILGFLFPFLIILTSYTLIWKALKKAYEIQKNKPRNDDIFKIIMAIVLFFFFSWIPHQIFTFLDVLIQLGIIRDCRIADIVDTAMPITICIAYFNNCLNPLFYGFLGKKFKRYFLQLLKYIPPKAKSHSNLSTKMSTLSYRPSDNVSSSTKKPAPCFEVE
Protocol: Methods: ^19F-AmBF3-losartan was prepared via a copper-catalyzed alkyne-AmBF3 and azide-modified losartan cycloaddition at 45 °C for two hours, followed by semi-preparative HPLC purification. Then, ^19F-AmBF3-losartan (25 nmol, 15.3 μg) was radiolabeled with fluoride-18 (555-925 MBq) via an ^18F–^19F isotope exchange reaction in aqueous phase at 80 °C for 20 minutes and purified by solid phase extraction using a C18 Light Sep-Pak cartridge. In vitro AT1R binding studies were performed at 4 °C for one hour using AT1R-positive MDA-MB-231 breast cancer cells, AT1R-expressing CHO AT1R cells, and AT1R-negative CHO cells. The in vitro studies were conducted in presence or absence of the AT1R blocker losartan potassium (100 μM). AT1R expression in cells was confirmed by quantitative real-time reverse transcription polymerase chain reaction (RT-PCR).

[6] = logP of 68Ga-TAFC derivatives; assay type: physicochemical; settings: 68Ga-labelled
Protocol: Stability, protein binding and logP values were determined.

rhuPAR = molecular target: T3, rhuPAR (human, UniProt Q03405 23-305); assay: ELISA; competitive bioassay: rhuPAR immobilised; ligand 0-1000 uM in the presence of 0.1 nM monoclonal mouse IgG1 antibody (clone #62022, R&D Systems) against the uPA-binding pocket of uPAR; HRP-conjugated goat anti-mouse IgG1, chromogenic substrate, read at 450 nm; assay specific IC50; settings: both partners purified
T3 construct: Species read from the printed label 'rhuPAR' (recombinant human uPAR); also called membrane anchored receptor uPAR
T3 sequence (Q03405 23-305): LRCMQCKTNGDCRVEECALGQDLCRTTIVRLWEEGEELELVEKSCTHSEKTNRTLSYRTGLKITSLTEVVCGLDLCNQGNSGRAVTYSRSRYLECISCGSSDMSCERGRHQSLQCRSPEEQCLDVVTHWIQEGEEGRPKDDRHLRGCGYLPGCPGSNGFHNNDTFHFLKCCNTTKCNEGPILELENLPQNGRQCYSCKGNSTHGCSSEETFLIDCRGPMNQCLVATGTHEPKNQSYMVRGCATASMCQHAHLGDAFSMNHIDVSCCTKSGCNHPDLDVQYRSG

C=CCc1ccc(O)c(-c2ccc(OC)c(CC=C)c2)c1 [MH, 4’-O-methylhonokiol]
IC50 (COX-1): 2400 nM | IC50 (COX-2): 62 nM

CCCc1ccc(O)c(-c2ccc(O[11CH3])cc2)c1 [MPbP, 4’-[^11C]methoxy-5-propyl-1,1’-biphenyl-2-ol]
anti-inflammatory activity [1]: high anti-inflammatory activity comparable to that of specific COX-2 inhibitor celecoxib

NC[C@H](CC(=O)O)c1ccc(Cl)c(OCc2ccnc(F)c2)c1 [[^18F]1, (R)-4-amino-3-(4-chloro-3-((2-fluoropyridin-4-yl)methoxy)phenyl) butanoic acid]
mouse brain uptake (GABAB receptors; CD-1 male mice): 1 % ID/g tissue | inhibition of accumulation in the mouse brain (GABAB receptors; pre-injection of a selective GABAB agonist): 35%

C[C@@H](O)[C@@H]1NC(=O)[C@H](CCCN(O)C=O)NC(=O)[C@@H](NC(=O)[C@H](CCCN(O)C=O)NC(=O)[C@@H](CO)NC(=O)[C@H](CCCNC(=N)N)NC(=O)[C@@H](CO)NC(=O)[C@@H]2CCN=C3C(NC(=O)CCC(=O)O)=Cc4cc(O)c(O)cc4N32)CCCCNC(=O)[C@H]([C@@H](C)O)NC1=O [^68Ga-pyoverdine, metal not drawn] (Suc-[X1][dS]R[dS][X2]K[X2]TT; lactam 6-C)
log p: -3.07 ± 0.08 | fraction unbound [2]: > 0.97

c1cnc2c([O][89Zr]([O]c3cccc4cccnc34)([O]c3cccc4cccnc34)[O]c3cccc4cccnc34)cccc2c1 [^89Zr-oxine]
labelling efficiency of RBCs (RBCs): above 64.5%

CCCC[C@@H](C(=O)N[C@@H](CC(=O)O)C(=O)N[C@@H](Cc1cccc2ccccc12)C(N)=O)N(C)C(=O)[C@H](Cc1c[nH]c2ccccc12)NC(=O)CNC(=O)[C@H](Cc1ccc(O)cc1)NC(=O)[C@H](C)NC(=O)[C@@H](CCC(=O)O)NC(=O)CN1CCN(CC(=O)O)CCN(CC(=O)O)CCN(CC(=O)O)CC1 [^111In-DOTA-MGS5, metal not drawn]
tissue uptake at 4 h (in vivo; A431-CCK2R tumour, tumour uptake, 4 h p.i.): 23.5 ± 1.3 %ID/g | stability in blood, intact peptide [3]: > 80% | internalisation into A431-CCK2R cells (A431-CCK2R cells; after 1 h): > 40% | internalisation into A431-CCK2R cells (A431-CCK2R cells; after 4 h): > 80%

O=C([O-])CN1CCN(CC(=O)[O-])CCN(CC(=O)[O-])CCN(CC(=O)[O-])CC1.[111In+3] [^111In-DOTA]
binding to HCC1954 cells [4]: did not bind

CCCC[C@@H](C(=O)N[C@@H](CC(=O)O)C(=O)N[C@@H](Cc1cccc2ccccc12)C(N)=O)N(C)C(=O)[C@H](Cc1c[nH]c2ccccc12)NC(=O)CNC(=O)[C@H](Cc1ccc(O)cc1)NC(=O)[C@H](C)NC(=O)[C@@H](CCC(=O)O)NC(=O)CN1CCN(CC(=O)O)CCN(CC(=O)O)CCN(CC(=O)O)CC1 [^177Lu-DOTA-MGS5, metal not drawn]
tissue to tissue ratio at 4 h (in vivo; A431-CCK2R tumour / kidneys): > 6 | tissue to tissue ratio at 4 h (in vivo; A431-CCK2R tumour / stomach): > 3 | stability in blood, intact peptide [3]: > 80%

H2N-(Ahx)-Lys-NH-CO-NH-Glu (PSMA-11) [[^68Ga]1]
cell binding, % given radioactivity (T47D^+): ~ 2.5% | cell binding, times above control (T47D^+; vs Mock or blocked controls): 4 x | cell binding, % given radioactivity (PC-3^+): ~ 13% | cell binding, times above control (PC-3^+; vs Mock or blocked controls): 10 x | cell binding, % given radioactivity (LNCaP): ~ 66% | cell binding, % given radioactivity (MDA-MB-231^+): ~ 80% | cell binding, times above control (MDA-MB-231^+; vs Mock or blocked controls): 100 x

MA-Cys-Tyr-Arg-Leu-Arg-BPA-Nle-Pro-Asn-Ile-OH [^99mTc labelled NPY1 short analogue, 99mTc 3+1 nitrido complex of MA-Cys-Tyr-Arg-Leu-Arg-BPA-Nle-Pro-Asn-Ile-OH]
challenge with cysteine (cysteine challenge): no ligand exchange | activity bound to the membrane (MCF-7 cells): 15.2% | activity internalised (MCF-7 cells): 84.8% | cellular uptake (MCF-7 cells; at 4 hours): 3.1±0.2

^99mTc-HYNIC-[D-Phe,Tyr-octreotide [^99mTc-Octreotide]
effective dose [5]: 3.7 mSv

ammoniumethyl-trifluoroborate-losartan [^18F-AmBF3-losartan]
binding to AT1R-expressing cells (AT1R): specific binding

triacetylfusarinine C [[^68Ga]TAFC]
log p [6]: -2.1

B1: WX-360: cyclo^21,29[D-Cys^21]-uPA_(21-30)[S21C;H29C] (peptide, UniProt P00749 41-50, looked up)
peptide: [dC]NKYFSNICW
modifications: disulfide 1-9
notes: also called the original structure; source: synthetic peptide (synthesised on solid phase)
binding result (rhuPAR): binds
